Tests used:
Experiment in all cases: Test C postemergence
foxtail, giant = type: in vivo, Setaria faberii; conditions: for Plant response rating (scale of 0 to 100 where 0 is no effect and 100 is complete control), Foxtail, Giant: Postemergence, 31 g ai/ha, visually evaluated after 13 to 15 days; for Foxtail, Giant plant response rating / Plant response rating, Foxtail, Giant: postemergence; for Foxtail, Giant plant response rating: 62 g ai/ha, scale 0 to 100
How it was run: (§1)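 Greenhouse pot test: preemergence application onto freshly seeded loam/sand mix, postemergence application onto seedlings (1–4 leaves, 2–18 cm) in peat-vermiculite substrate. Responses scored visually 13 to 15 days later relative to controls, where 0 means no effect and 100 means complete control; a dash indicates no result.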

barnyardgrass = type: in vivo, Echinochloa crus-galli; conditions: for Plant response rating (scale of 0 to 100 where 0 is no effect and 100 is complete control), Barnyardgrass: Postemergence, 31 g ai/ha, visually evaluated after 13 to 15 days; for Barnyardgrass plant response rating / Plant response rating, Barnyardgrass: postemergence; for Barnyardgrass plant response rating: 62 g ai/ha, scale 0 to 100
How it was run: as §1

chickweed = type: in vivo, Stellaria media; conditions: for Plant response rating (scale of 0 to 100 where 0 is no effect and 100 is complete control), Chickweed: Postemergence, 31 g ai/ha, visually evaluated after 13 to 15 days; for Chickweed plant response rating / Plant response rating, Chickweed: postemergence; for Chickweed plant response rating: 62 g ai/ha, scale 0 to 100
How it was run: as §1

kochia = type: in vivo, Kochia scoparia; conditions: for Plant response rating (scale of 0 to 100 where 0 is no effect and 100 is complete control), Kochia: Postemergence, 31 g ai/ha, visually evaluated after 13 to 15 days; for Kochia plant response rating / Plant response rating, Kochia: postemergence; for Kochia plant response rating: 62 g ai/ha, scale 0 to 100
How it was run: as §1

lambsquarters = type: in vivo, Chenopodium album; conditions: for Plant response rating (scale of 0 to 100 where 0 is no effect and 100 is complete control), Lambsquarters: Postemergence, 31 g ai/ha, visually evaluated after 13 to 15 days; for Lambsquarters plant response rating / Plant response rating, Lambsquarters: postemergence; for Lambsquarters plant response rating: 62 g ai/ha, scale 0 to 100
How it was run: as §1

crabgrass, large = type: in vivo, Digitaria sanguinalis; conditions: for Plant response rating (scale of 0 to 100 where 0 is no effect and 100 is complete control), Crabgrass, Large: Postemergence, 31 g ai/ha, visually evaluated after 13 to 15 days; for Crabgrass, Large plant response rating / Plant response rating, Crabgrass, Large: postemergence; for Crabgrass, Large plant response rating: 62 g ai/ha, scale 0 to 100
How it was run: as §1

blackgrass = type: in vivo, Alopecurus myosuroides; conditions: for Plant response rating (scale of 0 to 100 where 0 is no effect and 100 is complete control), Blackgrass: Postemergence, 31 g ai/ha, visually evaluated after 13 to 15 days; for Blackgrass plant response rating / Plant response rating, Blackgrass: postemergence; for Blackgrass plant response rating: 62 g ai/ha, scale 0 to 100
How it was run: as §1

pigweed = type: in vivo, Amaranthus retroflexus; conditions: postemergence; for Pigweed plant response rating: 62 g ai/ha, scale 0 to 100
How it was run: as §1

soybean = type: in vivo, Glycine max; conditions: postemergence; for Plant response rating, Soybean: 250 g ai/ha, scale 0 to 100 (0 no effect, 100 complete control); for Soybean plant response rating: 125 g ai/ha, scale 0 to 100, 0 no effect, 100 complete control
How it was run: as §1

ryegrass, Italian = type: in vivo, Lolium multiflorum; conditions: postemergence
How it was run: as §1

johnsongrass = type: in vivo, Sorghum halepense; conditions: for Plant response rating (scale of 0 to 100 where 0 is no effect and 100 is complete control), Johnsongrass: Postemergence, 31 g ai/ha, visually evaluated after 13 to 15 days; for Johnsongrass plant response rating / Plant response rating, Johnsongrass: postemergence; for Johnsongrass plant response rating: 62 g ai/ha, scale 0 to 100
How it was run: as §1

oat, wild = type: in vivo, Avena fatua; conditions: for Plant response rating (scale of 0 to 100 where 0 is no effect and 100 is complete control), Oat, Wild: Postemergence, 31 g ai/ha, visually evaluated after 13 to 15 days; for Oat, Wild plant response rating / Plant response rating, Oat, Wild: postemergence; for Oat, Wild plant response rating: 62 g ai/ha, scale 0 to 100
How it was run: as §1

ragweed = type: in vivo, Ambrosia elation; conditions: postemergence
How it was run: as §1

galium = type: in vivo, Galium aparine; conditions: for Plant response rating (scale of 0 to 100 where 0 is no effect and 100 is complete control), Galium: Postemergence, 31 g ai/ha, visually evaluated after 13 to 15 days; for Galium plant response rating / Plant response rating, Galium: postemergence; for Galium plant response rating: 62 g ai/ha, scale 0 to 100
How it was run: as §1

corn = type: in vivo, Zea mays; conditions: for Plant response rating (scale of 0 to 100 where 0 is no effect and 100 is complete control), Corn: Postemergence, 31 g ai/ha, visually evaluated after 13 to 15 days; for Corn plant response rating / Plant response rating, Corn: postemergence; for Corn plant response rating: 62 g ai/ha, scale 0 to 100
How it was run: as §1

wheat = type: in vivo, Triticum aestivum; conditions: postemergence, 250 g ai/ha; scale 0 to 100 (0 no effect, 100 complete control)
How it was run: as §1

velvetleaf = type: in vivo, Abutilon theophrasti; conditions: postemergence, 250 g ai/ha; scale 0 to 100 (0 no effect, 100 complete control)
How it was run: as §1

[1] = 250 g ai/ha, scale 0 to 100 (0 no effect, 100 complete control)
[2] = 125 g ai/ha, scale 0 to 100, 0 no effect, 100 complete control

CCc1cc(C(=O)NCC2CC2)nn1Cc1ccnc(C(F)(F)F)c1 [Compound 199]
40: Plant response rating, Crabgrass, Large (crabgrass, large; [2]) | Plant response rating, Johnsongrass (johnsongrass; [2])
85: Kochia plant response rating (kochia) | Lambsquarters plant response rating (lambsquarters) | Plant response rating, Corn (corn; [2])
60: Chickweed plant response rating (chickweed) | Plant response rating, Crabgrass, Large (crabgrass, large; [1]) | Pigweed plant response rating (pigweed) | Plant response rating (scale of 0 to 100 where 0 is no effect and 100 is complete control), Galium (galium) | Plant response rating, Velvetleaf (velvetleaf)
80: Plant response rating, Chickweed (chickweed; [1]) | Plant response rating, Chickweed (chickweed; [2]) | Plant response rating (scale of 0 to 100 where 0 is no effect and 100 is complete control), Kochia (kochia) | Plant response rating, Oat, Wild (oat, wild; [1]) | Plant response rating, Galium (galium; [2])
50: Plant response rating, Foxtail, Giant (foxtail, giant; [1]) | Plant response rating, Foxtail, Giant (foxtail, giant; [2])
45: Plant response rating, Barnyardgrass (barnyardgrass; [1])
75: Plant response rating, Pigweed (pigweed; [2]) | Soybean plant response rating (soybean) | Plant response rating, Ragweed (ragweed; [1])
10: Plant response rating (scale of 0 to 100 where 0 is no effect and 100 is complete control), Foxtail, Giant (foxtail, giant) | Foxtail, Giant plant response rating (foxtail, giant) | Plant response rating (scale of 0 to 100 where 0 is no effect and 100 is complete control), Barnyardgrass (barnyardgrass) | Barnyardgrass plant response rating (barnyardgrass) | Plant response rating (scale of 0 to 100 where 0 is no effect and 100 is complete control), Crabgrass, Large (crabgrass, large) | Crabgrass, Large plant response rating (crabgrass, large) | Blackgrass plant response rating (blackgrass) | Plant response rating, Blackgrass (blackgrass; [2]) | Plant response rating, Ryegrass, Italian (ryegrass, Italian; [1]) | Plant response rating, Ryegrass, Italian (ryegrass, Italian; [2]) | Oat, Wild plant response rating (oat, wild) | Corn plant response rating (corn)
70: Plant response rating (scale of 0 to 100 where 0 is no effect and 100 is complete control), Chickweed (chickweed) | Plant response rating, Lambsquarters (lambsquarters; [2]) | Galium plant response rating (galium)
25: Plant response rating (scale of 0 to 100 where 0 is no effect and 100 is complete control), Lambsquarters (lambsquarters)
95: Plant response rating, Kochia (kochia; [1]) | Plant response rating, Lambsquarters (lambsquarters; [1]) | Plant response rating, Soybean (soybean)
5: Plant response rating (scale of 0 to 100 where 0 is no effect and 100 is complete control), Johnsongrass (johnsongrass) | Johnsongrass plant response rating (johnsongrass) | Plant response rating (scale of 0 to 100 where 0 is no effect and 100 is complete control), Oat, Wild (oat, wild) | Plant response rating (scale of 0 to 100 where 0 is no effect and 100 is complete control), Corn (corn) | Plant response rating, Wheat (wheat)
0: Plant response rating (scale of 0 to 100 where 0 is no effect and 100 is complete control), Blackgrass (blackgrass)
30: Plant response rating, Barnyardgrass (barnyardgrass; [2]) | Plant response rating, Blackgrass (blackgrass; [1]) | Plant response rating, Oat, Wild (oat, wild; [2])
55: Plant response rating, Johnsongrass (johnsongrass; [1])
65: Plant response rating, Corn (corn; [1])
20: Plant response rating, Ragweed (ragweed; [2])
90: Plant response rating, Kochia (kochia; [2]) | Plant response rating, Pigweed (pigweed; [1]) | Plant response rating, Galium (galium; [1])

CCc1cc(C(=O)NC2CC2)nn1Cc1ccnc(OCC(F)(F)F)c1 [Compound 200]
50: Plant response rating (scale of 0 to 100 where 0 is no effect and 100 is complete control), Galium (galium) | Galium plant response rating (galium)
0: Plant response rating (scale of 0 to 100 where 0 is no effect and 100 is complete control), Barnyardgrass (barnyardgrass)
60: Pigweed plant response rating (pigweed)
65: Lambsquarters plant response rating (lambsquarters) | Plant response rating, Lambsquarters (lambsquarters; [2])
55: Plant response rating (scale of 0 to 100 where 0 is no effect and 100 is complete control), Lambsquarters (lambsquarters)
20: Plant response rating, Johnsongrass (johnsongrass; [1]) | Plant response rating, Oat, Wild (oat, wild; [1]) | Plant response rating, Corn (corn; [1])
15: Plant response rating, Foxtail, Giant (foxtail, giant; [1]) | Plant response rating, Foxtail, Giant (foxtail, giant; [2]) | Plant response rating, Blackgrass (blackgrass; [1]) | Plant response rating, Blackgrass (blackgrass; [2]) | Plant response rating, Ryegrass, Italian (ryegrass, Italian; [1]) | Plant response rating, Ryegrass, Italian (ryegrass, Italian; [2])
95: Plant response rating, Lambsquarters (lambsquarters; [1])
90: Plant response rating, Chickweed (chickweed; [1]) | Plant response rating, Chickweed (chickweed; [2]) | Plant response rating (scale of 0 to 100 where 0 is no effect and 100 is complete control), Kochia (kochia) | Kochia plant response rating (kochia) | Plant response rating, Kochia (kochia; [1]) | Plant response rating, Kochia (kochia; [2]) | Plant response rating, Soybean (soybean) | Soybean plant response rating (soybean)
75: Plant response rating (scale of 0 to 100 where 0 is no effect and 100 is complete control), Chickweed (chickweed) | Chickweed plant response rating (chickweed) | Plant response rating, Pigweed (pigweed; [2]) | Plant response rating, Galium (galium; [1]) | Plant response rating, Galium (galium; [2])
80: Plant response rating, Pigweed (pigweed; [1])
25: Plant response rating, Crabgrass, Large (crabgrass, large; [1])
5: Plant response rating (scale of 0 to 100 where 0 is no effect and 100 is complete control), Foxtail, Giant (foxtail, giant) | Barnyardgrass plant response rating (barnyardgrass) | Plant response rating, Barnyardgrass (barnyardgrass; [2]) | Plant response rating (scale of 0 to 100 where 0 is no effect and 100 is complete control), Blackgrass (blackgrass) | Plant response rating (scale of 0 to 100 where 0 is no effect and 100 is complete control), Oat, Wild (oat, wild) | Plant response rating (scale of 0 to 100 where 0 is no effect and 100 is complete control), Corn (corn) | Corn plant response rating (corn)
45: Plant response rating, Ragweed (ragweed; [1]) | Plant response rating, Ragweed (ragweed; [2]) | Plant response rating, Velvetleaf (velvetleaf)
10: Foxtail, Giant plant response rating (foxtail, giant) | Plant response rating, Barnyardgrass (barnyardgrass; [1]) | Plant response rating (scale of 0 to 100 where 0 is no effect and 100 is complete control), Crabgrass, Large (crabgrass, large) | Crabgrass, Large plant response rating (crabgrass, large) | Plant response rating, Crabgrass, Large (crabgrass, large; [2]) | Blackgrass plant response rating (blackgrass) | Plant response rating (scale of 0 to 100 where 0 is no effect and 100 is complete control), Johnsongrass (johnsongrass) | Johnsongrass plant response rating (johnsongrass) | Plant response rating, Johnsongrass (johnsongrass; [2]) | Oat, Wild plant response rating (oat, wild) | Plant response rating, Oat, Wild (oat, wild; [2]) | Plant response rating, Corn (corn; [2]) | Plant response rating, Wheat (wheat)
